Reference: paper PMC8236452, “Pharmacokinetics and safety of rucaparib in patients with advanced solid tumors and hepatic impairment” (Cancer Chemotherapy and Pharmacology, 2021)

Columns and labels:
[1] = tested on: patients with advanced solid tumors; test: Safety and tolerability (TEAEs) after a single oral dose of rucaparib 600 mg; type: in vivo, human; details: for TEAE: Abdominal pain / TEAE: Cholangitis / TEAE: Hyperbilirubinemia / TEAE: Hypokalemia: Grade 3 event; for TEAE: Multiple organ dysfunction syndrome: Grade 5 event
Experimental: Safety and tolerability assessments comprised adverse events, clinical laboratory parameters, vital signs, 12-lead ECG, physical examination, and ECOG PS. For part 1 of this study, symptom-associated physical examination and safety laboratory tests, including clinical chemistry, hematology, coagulation, and urinalysis, were performed on day 7 after administration of the first dose of the study medication; 12-lead ECGs were performed 2 and 4 h postdose. All safety assessments were performed at the end of the treatment visit. Treatment-emergent adverse events (TEAEs) were defined as adverse events with an onset date on or after the date of first dose of study treatment until 28 days after the last dose. Causality of treatment-emergent adverse events was evaluated by investigators based on clinical and scientific data for rucaparib, including previously observed and known reactions, temporal relationship of event to rucaparib administration, patient response on […] rechallenge with the drug, medical history and ongoing concomitant conditions, natural course of the disease, potential effects of concomitant medications and interactions with the study drug, and biological plausibility of the event based on mechanism of action of rucaparib.

[2] = set-up: method as in PMID 29799676, PMID 31250355, PMID 28264872; details: 600 mg BID, cited from earlier work
[3] = tested on: patients; set-up: method as in PMID 28264872; details: dose escalation study; not reached; cited from earlier work
[4] = Moderate hepatic impairment (NCI-ODWG, n = 8)
[5] = Normal hepatic function (NCI-ODWG, n = 8)

SMILES: CNCc1ccc(-c2[nH]c3cc(F)cc4c3c2CCNC4=O)cc1 [rucaparib]
- TEAE: Anemia [1, 4]: 1 (12.5) n (%)
- TEAE: Ascites [1, 4]: 1 (12.5) n (%)
- TEAE: Body temperature increased [1, 4]: 1 (12.5) n (%)
- TEAE: Conjunctival hemorrhage [1, 4]: 1 (12.5) n (%)
- TEAE: Decreased appetite [1, 4]: 0 n (%)
- TEAE: Nausea [1, 4]: 0 n (%)
- TEAE: Pyrexia [1, 4]: 1 (12.5) n (%)
- TEAE: Renal failure [1, 4]: 1 (12.5) n (%)
- TEAE: Thrombocytopenia [1, 4]: 1 (12.5) n (%)
- TEAE: Urinary tract infection [1, 4]: 1 (12.5) n (%)
- TEAEs: Patients with any event [1, 4]: 6 (75.0) n (%)
- TEAE: Abdominal pain [1, 4]: 1 (12.5) n (%)
- TEAE: Cholangitis [1, 4]: 1 (12.5) n (%)
- TEAE: Hyperbilirubinemia [1, 4]: 1 (12.5) n (%)
- TEAE: Hypokalemia [1, 4]: 1 (12.5) n (%)
- TEAE: Multiple organ dysfunction syndrome [1, 4]: 1 (12.5) n (%)
- TEAE: Anemia [1, 5]: 0 n (%)
- TEAE: Ascites [1, 5]: 0 n (%)
- TEAE: Body temperature increased [1, 5]: 0 n (%)
- TEAE: Conjunctival hemorrhage [1, 5]: 0 n (%)
- TEAE: Decreased appetite [1, 5]: 1 (12.5) n (%)
- TEAE: Nausea [1, 5]: 1 (12.5) n (%)
- TEAE: Pyrexia [1, 5]: 0 n (%)
- TEAE: Renal failure [1, 5]: 0 n (%)
- TEAE: Thrombocytopenia [1, 5]: 0 n (%)
- TEAE: Urinary tract infection [1, 5]: 0 n (%)
- TEAEs: Patients with any event [1, 5]: 2 (25.0) n (%)
- TEAE: Abdominal pain [1, 5]: 0 n (%)
- TEAE: Cholangitis [1, 5]: 0 n (%)
- TEAE: Hyperbilirubinemia [1, 5]: 0 n (%)
- TEAE: Hypokalemia [1, 5]: 0 n (%)
- TEAE: Multiple organ dysfunction syndrome [1, 5]: 0 n (%)
- TEAE: Anemia ([1]; Overall (N = 16)): 1 (6.3) n (%)
- TEAE: Ascites ([1]; Overall (N = 16)): 1 (6.3) n (%)
- TEAE: Body temperature increased ([1]; Overall (N = 16)): 1 (6.3) n (%)
- TEAE: Conjunctival hemorrhage ([1]; Overall (N = 16)): 1 (6.3) n (%)
- TEAE: Decreased appetite ([1]; Overall (N = 16)): 1 (6.3) n (%)
- TEAE: Nausea ([1]; Overall (N = 16)): 1 (6.3) n (%)
- TEAE: Pyrexia ([1]; Overall (N = 16)): 1 (6.3) n (%)
- TEAE: Renal failure ([1]; Overall (N = 16)): 1 (6.3) n (%)
- TEAE: Thrombocytopenia ([1]; Overall (N = 16)): 1 (6.3) n (%)
- TEAE: Urinary tract infection ([1]; Overall (N = 16)): 1 (6.3) n (%)
- TEAEs: Patients with any event ([1]; Overall (N = 16)): 8 (50.0) n (%)
- TEAE: Abdominal pain ([1]; Overall (N = 16)): 1 (6.3) n (%)
- TEAE: Cholangitis ([1]; Overall (N = 16)): 1 (6.3) n (%)
- TEAE: Hyperbilirubinemia ([1]; Overall (N = 16)): 1 (6.3) n (%)
- TEAE: Hypokalemia ([1]; Overall (N = 16)): 1 (6.3) n (%)
- TEAE: Multiple organ dysfunction syndrome ([1]; Overall (N = 16)): 1 (6.3) n (%)
- Patients who withdrew from the study due to a TEAE ([1]; after completion of PK assessment in Part 1, both in the moderate hepatic impairment group): two
- Patients who experienced at least 1 TEAE ([1]; all 16 patients): 50%
- System Organ Class TEAEs: gastrointestinal disorders ([1]; all 16 patients, abdominal pain, ascites, nausea): 18.8%
- Patients with at least 1 TEAE of grade 3 or higher ([1]; all in the moderate hepatic impairment group): Four
- TEAEs considered treatment related ([1]; grade 1 anemia and grade 1 thrombocytopenia, one patient, moderate hepatic impairment group): 2 TEAEs
- Patients who experienced at least 1 TEAE ([1]; moderate hepatic impairment group): 75.0%
- Patients who experienced at least 1 TEAE ([1]; normal hepatic function group): 25.0%
- Trends in clinical laboratory parameters, vital signs, ECG, physical examinations ([1]; single oral rucaparib 600 mg): no clinically relevant treatment-related trends observed
- AUC0–12 h at steady state ([2]; 54% CV): 16900 h⋅ng/mL
- mean steady-state maximum plasma concentration (Cmax,ss) ([2]; 54% CV): 1.94 µg/mL
- Median time to steady-state maximum concentration (tmax,ss) [2]: 6840 s
- time to achieve steady state [2]: 1 week
- maximum tolerated dose [3]: > 840 mg BID
